According to PMC4138103 (PLoS ONE, 2014):

What was measured:
Sprague-Dawley rats [1] = test: Bone biomechanics, three-point bending test of tibial shaft; format: in vivo, Rattus norvegicus; set-up: key to Dose response: Biomechanics, diaphysis, Yield Force: D: significant dose response (for results, see Table 2); T: significant trend; settings: for Emax: Rattus norvegicus; for F yield, CED / F yield, CED-L: total dose based
Procedure: For biomechanical testing hind limbs were defrosted and tibial shafts tested with a three-point bending test using a custom made testing apparatus, [34]. Each bone was placed on a support with a span length of 13 mm and bending load was applied with a constant speed of 0.155 mm/sec until failure. The breaking force, bending stiffness and yield force were defined from load-displacement data. Stiffness was calculated as the slope of the linear part of load-displacement curve. Yield force was defined as a corresponding force where the fit for stiffness separated from the measured load-displacement curve. The breaking force was defined as bending load at maximum. Corresponding to these forces also both failure and yield deformations were evaluated.
(§1) Data were also analyzed using the BMD method, which is based on dose-response modeling of the full data set using a nested family of exponential and Hill models. The analyses were done on data of males and females combined, using sex as a covariate. […] In that case, different Critical Effect Doses (CEDs) and CEDs at the lowest bound of the confidence interval (CED-L) were generated for each sex. If no difference between sexes is detected, a CED and CED-Ls for the combined data is generated. However, this was also done if the curve fits are close, and separate analyses for males and females were then performed manually. CEDs and CED-Ls were calculated at the predefined Critical Effect Size (CES) of 5% (EFSA standard) or 10%.

Sprague-Dawley rats [2] = test: Histopathology; format: in vivo, Rattus norvegicus; settings: for Emax: Rattus norvegicus; for Large thyroid follicles (%), CED / Large thyroid follicles (%), CED-L: total dose based; for Adrenal zona fasciculata hypertrophy, CED: semi-quantitative staging; for Pituitary frontal lobe vacuoles or extracellular deposits, incidence: top dose (1700 mg/kg bw)
Text: After fixation, the samples were dehydrated, paraffinized and embedded according to standard sampling and trimming procedures. Sections of 4 µm were stained with hematoxylin and eosin in an automated way. Microscopic observations were done by initial unblinded comparison of control and top dose samples. […] Slide reading for such affected endpoints was refined by blind and/or semi-quantitative scoring.
For immunohistochemistry of TSH and ACTH in the pituitary routine sections were deparaffinized in a graded series of xylol/ethanol. Endogenous peroxidase activity was blocked in a 1/1 methanol/distilled water solution with 1/100 0.3% H2O2 added. […] Subsequent 60 min incubation with purified rabbit polyclonal IgG against rat TSH (Biogenesis), 1/1600 dilution, or against ACTH (Phoenix Pharmaceuticals), 1/1000 dilution, was followed by incubation with a biotinylated anti-rabbit second antibody in the case of TSH (1/200, 30 min; Vector) and avidin-biotin complex (Vector) according to instructions of the manufacturer; both antisera were diluted in the 1% blocking reagent solution, or with a peroxidase conjugated anti-rabbit second antibody (DAKO) in the case of ACTH. Immunostaining was completed with incubation with a standard diaminobenzidine (Sigma) solution for 5 min and counterstaining with hematoxylin (Mayer procedure). Immunostaining was evaluated by comparing the quantity and staining intensity of positive cells between control and high dose samples.
as §1

[3] = F, CES 5%, model E2, adipose tissue concentration based
[4] = F, CES 10%, model E2, adipose tissue concentration based
[5] = females, adipose tissue concentration based
[6] = tibia, females, total dose 3 mg/kg bw
[7] = tibia, females, total dose 10 mg/kg bw
[8] = tibia, females, total dose 30 mg/kg bw
[9] = tibia, females, total dose 100 mg/kg bw
[10] = tibia, females, total dose 300 mg/kg bw
[11] = tibia, females, total dose 1000 mg/kg bw
[12] = tibia, females, total dose 1700 mg/kg bw
[13] = tibia, males, total dose 3 mg/kg bw
[14] = tibia, males, total dose 10 mg/kg bw
[15] = tibia, males, total dose 30 mg/kg bw
[16] = tibia, males, total dose 100 mg/kg bw
[17] = tibia, males, total dose 300 mg/kg bw
[18] = tibia, males, total dose 1000 mg/kg bw
[19] = tibia, males, total dose 1700 mg/kg bw
[20] = F, CES 5%, model E4, adipose tissue concentration based
[21] = F, CES 10%, model E4, adipose tissue concentration based

Clc1cc(Cl)c(-c2cc(Cl)c(Cl)c(Cl)c2Cl)cc1Cl [PCB 180, 2,2′,3′,4,4′,5,5′-heptachlorobiphenyl]
CED, F yield (Sprague-Dawley rats [1]; [3]): 2860 µg/g lipid
CED-L, F yield (Sprague-Dawley rats [1]; [3]): 1647 µg/g lipid
CED, F yield (Sprague-Dawley rats [1]; [4]): 5880 µg/g lipid
CED-L, F yield (Sprague-Dawley rats [1]; [4]): 3384 µg/g lipid
Emax (Sprague-Dawley rats [1]; F, model E2, controls vs high dose according to the fitted model, read-out: Maximum response, F yield): -18.3%
Emax (Sprague-Dawley rats [1]; females, controls vs high dose, fitted model, read-out: F yield, Maximum response): -16.7%
F yield, CED (Sprague-Dawley rats [1]; females, CES 5%): 476 mg/kg bw
F yield, CED-L (Sprague-Dawley rats [1]; females, CES 5%): 266 mg/kg bw
F yield, CED (Sprague-Dawley rats [1]; females, CES 10%): 978 mg/kg bw
F yield, CED-L (Sprague-Dawley rats [1]; females, CES 10%): 547 mg/kg bw
Yield force of tibial shaft, CED (Sprague-Dawley rats [1]; [5]): 2860 µg/g lipid
Biomechanics, diaphysis: Ultimate Deformation (Sprague-Dawley rats [1]; [6]): 0.601 mm
Biomechanics, diaphysis: Ultimate Force (Sprague-Dawley rats [1]; [6]): 108 N
Biomechanics, diaphysis: Yield Deformation (Sprague-Dawley rats [1]; [6]): 0.291 mm
Biomechanics, diaphysis: Yield Force (Sprague-Dawley rats [1]; [6]): 72.2 N
Biomechanics, diaphysis: Ultimate Deformation (Sprague-Dawley rats [1]; [7]): 0.634 mm
Biomechanics, diaphysis: Ultimate Force (Sprague-Dawley rats [1]; [7]): 106 N
Biomechanics, diaphysis: Yield Deformation (Sprague-Dawley rats [1]; [7]): 0.295 mm
Biomechanics, diaphysis: Yield Force (Sprague-Dawley rats [1]; [7]): 65.9 N
Biomechanics, diaphysis: Ultimate Deformation (Sprague-Dawley rats [1]; [8]): 0.763 mm
Biomechanics, diaphysis: Ultimate Force (Sprague-Dawley rats [1]; [8]): 112 N
Biomechanics, diaphysis: Yield Deformation (Sprague-Dawley rats [1]; [8]): 0.378 mm
Biomechanics, diaphysis: Yield Force (Sprague-Dawley rats [1]; [8]): 81.2 N
Biomechanics, diaphysis: Ultimate Deformation (Sprague-Dawley rats [1]; [9]): 0.622 mm
Biomechanics, diaphysis: Ultimate Force (Sprague-Dawley rats [1]; [9]): 100 N
Biomechanics, diaphysis: Yield Deformation (Sprague-Dawley rats [1]; [9]): 0.360 mm
Biomechanics, diaphysis: Yield Force (Sprague-Dawley rats [1]; [9]): 79.7 N
Biomechanics, diaphysis: Ultimate Deformation (Sprague-Dawley rats [1]; [10]): 0.640 mm
Biomechanics, diaphysis: Ultimate Force (Sprague-Dawley rats [1]; [10]): 104 N
Biomechanics, diaphysis: Yield Deformation (Sprague-Dawley rats [1]; [10]): 0.341 mm
Biomechanics, diaphysis: Yield Force (Sprague-Dawley rats [1]; [10]): 76.7 N
Biomechanics, diaphysis: Ultimate Deformation (Sprague-Dawley rats [1]; [11]): 0.645 mm
Biomechanics, diaphysis: Ultimate Force (Sprague-Dawley rats [1]; [11]): 105 N
Biomechanics, diaphysis: Yield Deformation (Sprague-Dawley rats [1]; [11]): 0.316 mm
Biomechanics, diaphysis: Yield Force (Sprague-Dawley rats [1]; [11]): 71.4 N
Biomechanics, diaphysis: Ultimate Deformation (Sprague-Dawley rats [1]; [12]): 0.691 mm
Biomechanics, diaphysis: Ultimate Force (Sprague-Dawley rats [1]; [12]): 109 N
Biomechanics, diaphysis: Yield Deformation (Sprague-Dawley rats [1]; [12]): 0.276 mm
Biomechanics, diaphysis: Yield Force (Sprague-Dawley rats [1]; [12]): 60.4 N
Dose response: Biomechanics, diaphysis, Yield Force (Sprague-Dawley rats [1]; tibia, females, total doses 0-1700 mg/kg bw): D
Biomechanics, diaphysis: Ultimate Deformation (Sprague-Dawley rats [1]; [13]): 0.888 mm
Biomechanics, diaphysis: Ultimate Force (Sprague-Dawley rats [1]; [13]): 123 N
Biomechanics, diaphysis: Yield Deformation (Sprague-Dawley rats [1]; [13]): 0.423 mm
Biomechanics, diaphysis: Yield Force (Sprague-Dawley rats [1]; [13]): 84.8 N
Biomechanics, diaphysis: Ultimate Deformation (Sprague-Dawley rats [1]; [14]): 0.727 mm
Biomechanics, diaphysis: Ultimate Force (Sprague-Dawley rats [1]; [14]): 131 N
Biomechanics, diaphysis: Yield Deformation (Sprague-Dawley rats [1]; [14]): 0.333 mm
Biomechanics, diaphysis: Yield Force (Sprague-Dawley rats [1]; [14]): 71.9 N
Biomechanics, diaphysis: Ultimate Deformation (Sprague-Dawley rats [1]; [15]): 0.704 mm
Biomechanics, diaphysis: Ultimate Force (Sprague-Dawley rats [1]; [15]): 122 N
Biomechanics, diaphysis: Yield Deformation (Sprague-Dawley rats [1]; [15]): 0.346 mm
Biomechanics, diaphysis: Yield Force (Sprague-Dawley rats [1]; [15]): 78.4 N
Biomechanics, diaphysis: Ultimate Deformation (Sprague-Dawley rats [1]; [16]): 0.786 mm
Biomechanics, diaphysis: Ultimate Force (Sprague-Dawley rats [1]; [16]): 130 N
Biomechanics, diaphysis: Yield Deformation (Sprague-Dawley rats [1]; [16]): 0.395 mm
Biomechanics, diaphysis: Yield Force (Sprague-Dawley rats [1]; [16]): 87.0 N
Biomechanics, diaphysis: Ultimate Deformation (Sprague-Dawley rats [1]; [17]): 0.758 mm
Biomechanics, diaphysis: Ultimate Force (Sprague-Dawley rats [1]; [17]): 132 N
Biomechanics, diaphysis: Yield Deformation (Sprague-Dawley rats [1]; [17]): 0.295 mm
Biomechanics, diaphysis: Yield Force (Sprague-Dawley rats [1]; [17]): 69.0 N
Biomechanics, diaphysis: Ultimate Deformation (Sprague-Dawley rats [1]; [18]): 0.772 mm
Biomechanics, diaphysis: Ultimate Force (Sprague-Dawley rats [1]; [18]): 120 N
Biomechanics, diaphysis: Yield Deformation (Sprague-Dawley rats [1]; [18]): 0.446 mm
Biomechanics, diaphysis: Yield Force (Sprague-Dawley rats [1]; [18]): 93.0 N
Biomechanics, diaphysis: Ultimate Deformation (Sprague-Dawley rats [1]; [19]): 0.769 mm
Biomechanics, diaphysis: Ultimate Force (Sprague-Dawley rats [1]; [19]): 118 N
Biomechanics, diaphysis: Yield Deformation (Sprague-Dawley rats [1]; [19]): 0.346 mm
Biomechanics, diaphysis: Yield Force (Sprague-Dawley rats [1]; [19]): 81.2 N
CED, Large thyroid follicles (%) (Sprague-Dawley rats [2]; [20]): 105 µg/g lipid
CED-L, Large thyroid follicles (%) (Sprague-Dawley rats [2]; [20]): 52.7 µg/g lipid
CED, Large thyroid follicles (%) (Sprague-Dawley rats [2]; [21]): 218 µg/g lipid
CED-L, Large thyroid follicles (%) (Sprague-Dawley rats [2]; [21]): 110 µg/g lipid
Emax (Sprague-Dawley rats [2]; F, model E4, controls vs high dose according to the fitted model, read-out: Maximum response, Large thyroid follicles (%)): -70.9%
Emax (Sprague-Dawley rats [2]; females, controls vs high dose, fitted model, read-out: Large thyroid follicles (%), Maximum response): -71%
Hyperemia of inner zones of adrenal cortex, CEDL (Sprague-Dawley rats [2]; females): 2526 mg/kg bw
Activation of adrenal zona fasciculata, difference in CED values between genders (Sprague-Dawley rats [2]; females more sensitive, semi-quantitative evaluation): 297 fold
Large thyroid follicles (%), CED (Sprague-Dawley rats [2]; females, CES 5%): 22.6 mg/kg bw
Large thyroid follicles (%), CED-L (Sprague-Dawley rats [2]; females, CES 5%): 11.6 mg/kg bw
Large thyroid follicles (%), CED (Sprague-Dawley rats [2]; females, CES 10%): 131 mg/kg bw
Large thyroid follicles (%), CED-L (Sprague-Dawley rats [2]; females, CES 10%): 81.0 mg/kg bw
Area of large thyroid follicles, CED (Sprague-Dawley rats [2]; [5]): 105 µg/g lipid
Thyroid follicle depletion in females, CED (Fig. 7C) (Sprague-Dawley rats [2]; females, legend says CES 5%): 131
Thyroid follicle depletion in females, CED-L05 (Fig. 7C) (Sprague-Dawley rats [2]; females, legend says CES 5%): 80.5
Thyroid follicle depletion in females, CED-L95 (Fig. 7C) (Sprague-Dawley rats [2]; females, legend says CES 5%): 213.3
Adrenal zona fasciculata hypertrophy, CED (Sprague-Dawley rats [2]; females): 2.0 mg/kg bw
Pituitary frontal lobe vacuoles or extracellular deposits, incidence (Sprague-Dawley rats [2]; females): 2/5
Adrenal zona fasciculata hypertrophy, CED (Sprague-Dawley rats [2]; males): 594 mg/kg bw
Pituitary frontal lobe vacuoles or extracellular deposits, incidence (Sprague-Dawley rats [2]; males): 4/5
